ChEMBL document CHEMBL3244115 (1979)

Columns and labels:
Assay type in all cases: functional
[1] = tested on: B16; experiment: Antitumor activity against mouse B16 cells allografted in BDF mouse assessed as increase in life span at 25 mg/kg, ip administered for 9 days relative to untreated control; settings: route intraperitoneal
[2] = tested on: B16; experiment: Antitumor activity against mouse B16 cells allografted in ip dosed BDF mouse assessed as 25% increase in life span administered for 9 days
[3] = tested on: B16; experiment: Antitumor activity against mouse B16 cells allografted in BDF mouse assessed as increase in life span at 100 mg/kg, ip administered for 9 days relative to untreated control; settings: route intraperitoneal
[4] = tested on: B16; experiment: Antitumor activity against mouse B16 cells allografted in BDF mouse assessed as increase in life span at 8 mg/kg, ip administered for 9 days relative to untreated control; settings: route intraperitoneal
[5] = tested on: B16; experiment: Antitumor activity against mouse B16 cells allografted in BDF mouse assessed as increase in life span at 4 mg/kg, ip administered for 9 days relative to untreated control; settings: route intraperitoneal

| SMILES | T/C [1] [%] | log(1/C) [2] | T/C [3] [%] | T/C [4] [%] | T/C [5] [%] |
| --- | --- | --- | --- | --- | --- |
| NC(=O)Nc1cc(NC(N)=O)cc(N(CCCl)CCCl)c1 | 108 | 3.69 | – | – | – |
| ClCCN(CCCl)c1ccc(/C=C/c2ccccc2)cc1 | – | 2.86 | 101 | – | – |
| O=C(O)CCCc1ccc(N(CCCl)CCCl)cc1 [CHLORAMBUCIL] | – | 4.7 | – | 133 | – |
| NC(Cc1ccc(N(CCCl)CCCl)cc1)C(=O)O (stereo not drawn) [SARCOLYSIN] | – | 6.18 | – | – | 236 |
